Test results taken from patent US12226405B2, “Compounds and compositions for inhibiting the activity of HIF2-alpha and their methods of use” (Novartis AG, priority 2020, dated 2025).

Assays:
[1] = test system: HIF2α-dependent transcription in 786-O-HRE-Luc cells; assay: In vitro cellular hypoxia response element (HRE) reporter gene assay (RGA) for HIF2α; format: cell-based, human; details: Homo sapiens, 24 hours incubation
How it was run: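 Renal carcinoma cells carrying a 4×HRE-driven PEST-destabilised firefly luciferase were treated a day after seeding with eleven 2-fold compound dilutions (0.1% DMSO) for 24 h at 37° C. BrightGlo luminescence, background-subtracted and expressed as % of DMSO control, was fitted four-parametrically for IC50.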

[2] = target: HIF2α PAS-B domain (236-350, biotinylated on the N-terminus) (Homo sapiens (Human), UniProt Q99814); assay: In vitro SPA with the PAS-B domain of HIF2α (competition binding with radio-ligand); details: versus corresponding enantiomer
Sequence of HIF2α PAS-B domain (236-350, biotinylated on the N-terminus) (Q99814 236-350): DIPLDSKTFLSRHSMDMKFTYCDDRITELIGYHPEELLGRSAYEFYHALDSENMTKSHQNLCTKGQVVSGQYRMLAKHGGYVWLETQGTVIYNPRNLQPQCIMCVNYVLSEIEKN
Procedure: The assay buffer contained 50 mM Tris-HCl pH7 (Sigma), 20 mM NaCl (Fluka), 0.02% BSA (Sigma), 0.005% Triton X-100 (Pierce) and 1 mM DTT (Fluka). After a 30 min incubation period, 5 μL Streptavidin PVT SPA Beads (Perkin Elmer) at 1.2 mg/mL, diluted in the buffer, were added.

| Compound | IC50 [1] [µM] | IC50 in the Hif2α SPA assay, fold lower than for the corresponding (R)-enantiomer [2] |
| --- | --- | --- |
| FC(F)OC1=CC(C(F)(F)F)=CN2C[C@@]3(CCC(F)(F)c4c3ccnc4Cl)N=C12 [Example 31, (S)-1′-chloro-8-(difluoromethoxy)-8′,8′-difluoro-6-(trifluoromethyl)-7′,8′-dihydro-3H,6′H-spiro[imidazo[1,2-a]pyridine-2,5′-isoquinoline]] | 0.246 |  |
| FC(F)OC1=CC(C(F)(F)F)=CN2C[C@@]3(CCOc4cc(C(F)(F)F)ccc43)N=C12 [Example 44, (S)-8′-(difluoromethoxy)-6′,7-bis(trifluoromethyl)-3′H-spiro[chroman-4,2′-imidazo[1,2-a]pyridine]] | 0.112 | greater than 700 fold |
